Source: ChEMBL document CHEMBL5727881, “Pyridone amides as modulators of sodium channels” (2020)

Test: Electrophysiology Assay: Patch clamp electrophysiology was used to assess the efficacy and selectivity of sodium channel blockers in dorsal root ganglion neurons. Rat neurons were isolated from the dorsal root ganglions and maintained in culture for 2 to 10 days in the presence of NGF (50 ng/ml) (culture media consisted of NeurobasalA supplemented with B27, glutamine and antibiotics). Small diameter neurons (nociceptors, 8-12 μm in diameter) were visually identified and probed with fine tip glass electrodes connected to an amplifier (Axon Instruments). The “voltage clamp” mode was used to assess the compound's IC50 holding the cells at −60 mV. In addition, the “current clamp” mode was employed to test the efficacy of the compounds in blocking action potential generation in response to current injections. The results of these experiments contributed to the definition of the efficacy profile of the compounds.

Row | SMILES | IC50
1 | COc1ccc(Oc2ccc(F)cc2C(=O)Nc2cc[nH]c(=O)c2)c(C)c1 | 330 nM
2 | COc1cc(Oc2cc(C(F)(F)F)ccc2C(=O)Nc2cc[nH]c(=O)c2)ccc1F | 26 nM
3 | O=C(Nc1cc[nH]c(=O)c1)c1ccc(C(F)(F)F)cc1O[C@@H]1CC2CCC1C2 (stereo not given in full) | 765 nM
4 | O=C(Nc1ccn(CCO)c(=O)c1)c1ccc(C(F)(F)F)cc1Oc1ccc(F)cc1 | 2800 nM
5 | COc1cc(C)ccc1Oc1ccc(OC(F)(F)F)cc1C(=O)Nc1cc[nH]c(=O)c1 | 68 nM
